Test results from patent US10966993B2, “Pharmaceutical composition comprising a sulfonylurea drug and preparation method thereof” (JIANGSU AOSAIKANG PHARMACEUTICAL CO., LTD., priority 2016, dated 2021).
≈ marks a conversion by molar mass, not a printed value. Read-outs that look alike come from different tables or passages of the source.

Experiment: Test on the solubility of glibenclamide in additive/cyclodextrin solutions
Assay type: physicochemical
Conditions: for solubility at 1 h: 25 °C, thermodynamic from solid; for Solubility: 25° C.
Procedure: An excess amount of glibenclamide powder was added into an aqueous solution comprising different proportion of additive (e.g., meglumine, sodium carbonate, sodium hydrogen carbonate or sodium hydroxide) and cyclodextrin (hydroxypropyl-β-cyclodextrin) to form a suspension. The suspension was placed in a constant shaking incubator, and shaken for 1 h at 25±1° C. The shaken suspension was filtered with a 0.45 μm hydrophilic filter membrane, with the primary filtrate being disposed and the subsequent filtrate being collected. The subsequent filtrate was diluted to appropriate times with a PBS buffer having a pH of 7.4, the absorbance of the diluted subsequent filtrate was determined at a wavelength of 225 nm, and the solubility of glibenclamide in the diluted subsequent filtrate was calculated according to the absorbance. Corresponding solubility curves were plotted with the solubility of glibenclamide as the vertical axis and the concentration of cyclodextrin and/or meglumine as the horizontal axis.

## COc1ccc(Cl)cc1C(=O)NCCc1ccc(S(=O)(=O)NC(=O)NC2CCCCC2)cc1 [glibenclamide, 5-chloro-N-(4-[N-(cyclohexylcarbamoyl)aminosulfonyl]phenethyl)-2-methoxybenzamide]
Aqueous buffer, meglumine 0.1% (w/v), cyclodextrin 0% (w/v), read-out: Solubility
  solubility at 1 h: 960 µg/mL (≈ 1.94 mM)
Aqueous buffer, meglumine 0.5% (w/v), cyclodextrin 0% (w/v), read-out: Solubility
  solubility at 1 h: 1760 µg/mL (≈ 3.56 mM)
Aqueous buffer, meglumine 1% (w/v), cyclodextrin 0% (w/v), read-out: Solubility
  solubility at 1 h: 4930 µg/mL (≈ 9.98 mM)
Aqueous buffer, meglumine 2.5% (w/v), cyclodextrin 0% (w/v), read-out: Solubility
  solubility at 1 h: 8030 µg/mL (≈ 16.3 mM)
Aqueous with cosolvent or surfactant or cyclodextrin, cyclodextrin only, from 0.5% (w/v) to 40% (w/v), read-out: water solubility of glibenclamide
  solubility at 1 h: 1.3 to 120 µg/mL (≈ 0.00263 to 0.243 mM)
Aqueous with cosolvent or surfactant or cyclodextrin, meglumine 0% (w/v), 2-hydroxypropyl-β-cyclodextrin 0.5% (w/v), read-out: Solubility
  solubility at 1 h: 1.3 µg/mL (≈ 0.00263 mM)
Aqueous with cosolvent or surfactant or cyclodextrin, meglumine 0% (w/v), 2-hydroxypropyl-β-cyclodextrin 1.25% (w/v), read-out: Solubility
  solubility at 1 h: 3.1 µg/mL (≈ 0.00628 mM)
Aqueous with cosolvent or surfactant or cyclodextrin, meglumine 0% (w/v), 2-hydroxypropyl-β-cyclodextrin 2.5% (w/v), read-out: Solubility
  solubility at 1 h: 5.8 µg/mL (≈ 0.0117 mM)
Aqueous with cosolvent or surfactant or cyclodextrin, meglumine 0% (w/v), 2-hydroxypropyl-β-cyclodextrin 5% (w/v), read-out: Solubility
  solubility at 1 h: 14 µg/mL (≈ 0.0283 mM)
Aqueous with cosolvent or surfactant or cyclodextrin, meglumine 0% (w/v), 2-hydroxypropyl-β-cyclodextrin 10% (w/v), read-out: Solubility
  solubility at 1 h: 32 µg/mL (≈ 0.0648 mM)
Aqueous with cosolvent or surfactant or cyclodextrin, meglumine 0.1% (w/v), 2-hydroxypropyl-β-cyclodextrin 0.5% (w/v), read-out: Solubility
  solubility at 1 h: 1250 µg/mL (≈ 2.53 mM)
Aqueous with cosolvent or surfactant or cyclodextrin, meglumine 0.1% (w/v), 2-hydroxypropyl-β-cyclodextrin 1.25% (w/v), read-out: Solubility
  solubility at 1 h: 1420 µg/mL (≈ 2.87 mM)
Aqueous with cosolvent or surfactant or cyclodextrin, meglumine 0.1% (w/v), 2-hydroxypropyl-β-cyclodextrin 2.5% (w/v), read-out: Solubility
  solubility at 1 h: 1660 µg/mL (≈ 3.36 mM)
Aqueous with cosolvent or surfactant or cyclodextrin, meglumine 0.1% (w/v), 2-hydroxypropyl-β-cyclodextrin 5% (w/v), read-out: Solubility
  solubility at 1 h: 2170 µg/mL (≈ 4.39 mM)
Aqueous with cosolvent or surfactant or cyclodextrin, meglumine 0.1% (w/v), 2-hydroxypropyl-β-cyclodextrin 10% (w/v), read-out: Solubility
  solubility at 1 h: 2170 µg/mL (≈ 4.39 mM)
Aqueous with cosolvent or surfactant or cyclodextrin, meglumine 0.1% (w/v), 2-hydroxypropyl-β-cyclodextrin 20% (w/v), read-out: Solubility
  solubility at 1 h: 2230 µg/mL (≈ 4.51 mM)
Aqueous with cosolvent or surfactant or cyclodextrin, meglumine 0.1% (w/v), 2-hydroxypropyl-β-cyclodextrin 30% (w/v), read-out: Solubility
  solubility at 1 h: 2210 µg/mL (≈ 4.47 mM)
Aqueous with cosolvent or surfactant or cyclodextrin, meglumine 0.1% (w/v), 2-hydroxypropyl-β-cyclodextrin 40% (w/v), read-out: Solubility
  solubility at 1 h: 2280 µg/mL (≈ 4.62 mM)
Aqueous with cosolvent or surfactant or cyclodextrin, meglumine 0.1% (w/v), cyclodextrin from 0.5% (w/v) to 5% (w/v), read-out: water solubility of glibenclamide
  solubility at 1 h: 1250 to 2170 µg/mL (≈ 2.53 to 4.39 mM)
Aqueous with cosolvent or surfactant or cyclodextrin, meglumine 0.1% (w/v), cyclodextrin from 5% (w/v) to 40% (w/v), read-out: solubility of glibenclamide
  solubility at 1 h: ~2170 µg/mL (≈ 4.39 mM)
Aqueous with cosolvent or surfactant or cyclodextrin, meglumine 5% (w/v), 2-hydroxypropyl-β-cyclodextrin 5% (w/v), read-out: Solubility
  solubility at 1 h: 25200 µg/mL (≈ 51.1 mM)
Aqueous with cosolvent or surfactant or cyclodextrin, meglumine 5% (w/v), 2-hydroxypropyl-β-cyclodextrin 10% (w/v), read-out: Solubility
  solubility at 1 h: 34400 µg/mL (≈ 69.7 mM)
Aqueous with cosolvent or surfactant or cyclodextrin, meglumine 5% (w/v), 2-hydroxypropyl-β-cyclodextrin 20% (w/v), read-out: Solubility
  solubility at 1 h: 42200 µg/mL (≈ 85.5 mM)
Aqueous with cosolvent or surfactant or cyclodextrin, meglumine 5% (w/v), 2-hydroxypropyl-β-cyclodextrin 30% (w/v), read-out: Solubility
  solubility at 1 h: 49400 µg/mL (≈ 99.9 mM)
Aqueous with cosolvent or surfactant or cyclodextrin, meglumine 5% (w/v), 2-hydroxypropyl-β-cyclodextrin 40% (w/v), read-out: Solubility
  solubility at 1 h: 51000 µg/mL (≈ 103 mM)
Aqueous with cosolvent or surfactant or cyclodextrin, meglumine 5% (w/v), cyclodextrin 0% (w/v), read-out: Solubility
  solubility at 1 h: 13000 µg/mL (≈ 26.4 mM)
Aqueous with cosolvent or surfactant or cyclodextrin, meglumine 5% (w/v), cyclodextrin from 5% (w/v) to 30% (w/v), read-out: water solubility of glibenclamide
  solubility at 1 h: 25200 to 49400 µg/mL (≈ 51.1 to 99.9 mM)
Aqueous with cosolvent or surfactant or cyclodextrin, meglumine 5% (w/v), cyclodextrin from 30% (w/v) to 40% (w/v), read-out: solubility of glibenclamide
  solubility at 1 h: ~49400 µg/mL (≈ 99.9 mM)
Aqueous with cosolvent or surfactant or cyclodextrin, meglumine 10% (w/v), cyclodextrin 0% (w/v), read-out: Solubility
  solubility at 1 h: 19000 µg/mL (≈ 38.6 mM)
Aqueous with cosolvent or surfactant or cyclodextrin, meglumine only, from 0.1% (w/v) to 10% (w/v), read-out: water solubility of glibenclamide
  solubility at 1 h: 960 to 19000 µg/mL (≈ 1.94 to 38.6 mM)
Aqueous with cosolvent or surfactant or cyclodextrin, sodium carbonate 0.1% (w/v), 2-hydroxypropyl-β-cyclodextrin 10% (w/v), read-out: Solubility
  solubility at 1 h: 6510 µg/mL (≈ 13.2 mM)
Aqueous with cosolvent or surfactant or cyclodextrin, sodium carbonate 0.1% (w/v), 2-hydroxypropyl-β-cyclodextrin 20% (w/v), read-out: Solubility
  solubility at 1 h: 10600 µg/mL (≈ 21.5 mM)
Aqueous with cosolvent or surfactant or cyclodextrin, sodium carbonate 0.1% (w/v), 2-hydroxypropyl-β-cyclodextrin 30% (w/v), read-out: Solubility
  solubility at 1 h: 10800 µg/mL (≈ 21.8 mM)
Aqueous with cosolvent or surfactant or cyclodextrin, sodium carbonate 0.1% (w/v), 2-hydroxypropyl-β-cyclodextrin 40% (w/v), read-out: Solubility
  solubility at 1 h: 10900 µg/mL (≈ 22.1 mM)
Aqueous with cosolvent or surfactant or cyclodextrin, sodium carbonate 0.1% (w/v), cyclodextrin from 5% (w/v) to 20% (w/v), read-out: water solubility of glibenclamide
  solubility at 1 h: 2350 to 10600 µg/mL (≈ 4.76 to 21.5 mM)
Aqueous with cosolvent or surfactant or cyclodextrin, sodium carbonate 0.1% (w/v), cyclodextrin from 20% (w/v) to 40% (w/v), read-out: solubility of glibenclamide
  solubility at 1 h: ~10600 µg/mL (≈ 21.5 mM)
Aqueous with cosolvent or surfactant or cyclodextrin, sodium hydrogen carbonate 4% (w/v), 2-hydroxypropyl-β-cyclodextrin 0.5% (w/v), read-out: Solubility
  solubility at 1 h: 320 µg/mL (≈ 0.648 mM)
Aqueous with cosolvent or surfactant or cyclodextrin, sodium hydrogen carbonate 4% (w/v), 2-hydroxypropyl-β-cyclodextrin 1.25% (w/v), read-out: Solubility
  solubility at 1 h: 590 µg/mL (≈ 1.19 mM)
Aqueous with cosolvent or surfactant or cyclodextrin, sodium hydrogen carbonate 4% (w/v), 2-hydroxypropyl-β-cyclodextrin 5% (w/v), read-out: Solubility
  solubility at 1 h: 1260 µg/mL (≈ 2.55 mM)
Aqueous with cosolvent or surfactant or cyclodextrin, sodium hydrogen carbonate 4% (w/v), 2-hydroxypropyl-β-cyclodextrin 10% (w/v), read-out: Solubility
  solubility at 1 h: 1690 µg/mL (≈ 3.42 mM)
Aqueous with cosolvent or surfactant or cyclodextrin, sodium hydrogen carbonate 4% (w/v), 2-hydroxypropyl-β-cyclodextrin 20% (w/v), read-out: Solubility
  solubility at 1 h: 1730 µg/mL (≈ 3.5 mM)
Aqueous with cosolvent or surfactant or cyclodextrin, sodium hydrogen carbonate 4% (w/v), 2-hydroxypropyl-β-cyclodextrin 30% (w/v), read-out: Solubility
  solubility at 1 h: 1780 µg/mL (≈ 3.6 mM)
Aqueous with cosolvent or surfactant or cyclodextrin, sodium hydrogen carbonate 4% (w/v), 2-hydroxypropyl-β-cyclodextrin 40% (w/v), read-out: Solubility
  solubility at 1 h: 1750 µg/mL (≈ 3.54 mM)
Aqueous with cosolvent or surfactant or cyclodextrin, sodium hydrogen carbonate 4% (w/v), cyclodextrin from 0.5% (w/v) to 10% (w/v), read-out: water solubility of glibenclamide
  solubility at 1 h: 320 to 1690 µg/mL (≈ 0.648 to 3.42 mM)
Aqueous with cosolvent or surfactant or cyclodextrin, sodium hydrogen carbonate 4% (w/v), cyclodextrin from 10% (w/v) to 40% (w/v), read-out: solubility of glibenclamide
  solubility at 1 h: ~1690 µg/mL (≈ 3.42 mM)
Aqueous with cosolvent or surfactant or cyclodextrin, sodium hydroxide 0.01% (w/v), 2-hydroxypropyl-β-cyclodextrin 1.25% (w/v), read-out: Solubility
  solubility at 1 h: 370 µg/mL (≈ 0.749 mM)
Aqueous with cosolvent or surfactant or cyclodextrin, sodium hydroxide 0.01% (w/v), 2-hydroxypropyl-β-cyclodextrin 2.5% (w/v), read-out: Solubility
  solubility at 1 h: 640 µg/mL (≈ 1.3 mM)
Aqueous with cosolvent or surfactant or cyclodextrin, sodium hydroxide 0.01% (w/v), 2-hydroxypropyl-β-cyclodextrin 5% (w/v), read-out: Solubility
  solubility at 1 h: 810 µg/mL (≈ 1.64 mM)
Aqueous with cosolvent or surfactant or cyclodextrin, sodium hydroxide 0.01% (w/v), 2-hydroxypropyl-β-cyclodextrin 10% (w/v), read-out: Solubility
  solubility at 1 h: 1260 µg/mL (≈ 2.55 mM)
Aqueous with cosolvent or surfactant or cyclodextrin, sodium hydroxide 0.01% (w/v), 2-hydroxypropyl-β-cyclodextrin 30% (w/v), read-out: Solubility
  solubility at 1 h: 1240 µg/mL (≈ 2.51 mM)
Aqueous with cosolvent or surfactant or cyclodextrin, sodium hydroxide 0.01% (w/v), 2-hydroxypropyl-β-cyclodextrin 40% (w/v), read-out: Solubility
  solubility at 1 h: 1350 µg/mL (≈ 2.73 mM)
Aqueous with cosolvent or surfactant or cyclodextrin, sodium hydroxide 0.01% (w/v), cyclodextrin from 0.5% (w/v) to 10% (w/v), read-out: water solubility of glibenclamide
  solubility at 1 h: 140 to 1260 µg/mL (≈ 0.283 to 2.55 mM)
Aqueous with cosolvent or surfactant or cyclodextrin, sodium hydroxide 0.01% (w/v), cyclodextrin from 10% (w/v) to 40% (w/v), read-out: solubility of glibenclamide
  solubility at 1 h: ~1260 µg/mL (≈ 2.55 mM)
Meglumine 0% (w/v), 2-hydroxypropyl-β-cyclodextrin 30% (w/v)
  Solubility: 86 µg/mL (≈ 0.174 mM)
Meglumine 0% (w/v), 2-hydroxypropyl-β-cyclodextrin 40% (w/v)
  Solubility: 120 µg/mL (≈ 0.243 mM)
Sodium hydrogen carbonate 4% (w/v), 2-hydroxypropyl-β-cyclodextrin 2.5% (w/v)
  Solubility: 840 µg/mL (≈ 1.7 mM)
Sodium hydroxide 0.01% (w/v), 2-hydroxypropyl-β-cyclodextrin 20% (w/v)
  Solubility: 1300 µg/mL (≈ 2.63 mM)
